According to US20070122429A1, “Designed antigens to elicit neutralizing antibodies against sterically restricted antigen and method of using same” (priority 2005, published 2007):
Where no end group is shown, it is not given here. MBP = not defined here

What was measured:
IZN36-MBP = experiment: co-precipitation with biotinylated IZN36-MBP on streptavidin beads; assay type: binding; conditions: SDS-PAGE
Procedure: This mixture is then added to magnetic streptavidin beads (Dynal), which bind to the biotinylated IZN36-MBP.

HXB2 Env = biological target: T1, HXB2 Env (Human immunodeficiency virus type 1 group M subtype B, UniProt P04578); assay type: cell-based, HIV-1; conditions: range over cell-cell fusion and viral infectivity assays
T1 construct: expressed in transfected cells; host or cells: Chinese hamster ovary cells expressing HXB2 Env, mixed with HeLa-CD4-LTR-β-galactosidase cells
Procedure: Cell-cell fusion was monitored. HXB2 Env-expressing Chinese hamster ovary cells were mixed with HeLa-CD4-LTR-β-galactosidase cells in the presence of inhibitors for 20 h at 37° C. Syncytia were stained with 5-bromo-4-chloro-3-indolyl-β-D-galactopyranoside (X-gal) and counted.
Viral infectivity was measured by the following method: pseudotyped viruses were produced by co-transfecting 293T cells using FuGENE (Roche Applied Science) with pNL4-3.Luc.R-E- and either pEBB-HXB2 or pEBB-JRFL. After 36-48 h, viral supernatants were collected and sterile filtered. HXB2 or JRFL pseudotyped virus was added to HOS-CD4-fusin or HOS-CD4-CCR5 cells, respectively, in the presence of inhibitors. HXB2 assays included 20 μg/ml DEAE-dextran. After 12 h, virus and inhibitor were removed and replaced with fresh media. Cells were lysed 40-44 h after infection using Glo lysis buffer (Promega), and luciferase activity was measured using Bright-Glo (Promega). IC50 values for both assays were calculated by fitting data to the equation, y=k/(1+[inhibitor]/IC50), where y is the normalized number of syncytia or luciferase activity and k is the scaling constant.

MBP-C37: Escherichia coli maltose-binding protein fused by Ser5Gly2 linker to C37 ({MBP}-SSSSSGGHTTWMEWDREINNYTSLIHSLIEESQNQQEKNEQELLHHHHHH; reading uncertain; also: fused to maltose-binding protein (not in chain))
binding to IZN36-MBP (IZN36-MBP): reduced binding
reduction in potency relative to C37 (HXB2 Env): 75-228 fold
